US9193733B2, “Piperidinylcyclobutyl substituted pyrrolopyridine and pyrrolopyrimidine derivatives as JAK inhibitors” (Incyte Corporation, priority 2012, dated 2015)

Assays:
Type in all cases: biochemical
[1] = biological target: T1, human JAK2 (a.a. 828-1132) catalytic domain (Homo sapiens, UniProt O60674); experiment: In vitro JAK kinase assay (HTRF, phosphorylation of a biotinylated peptide), JAK2; conditions: 1 mM ATP
T1 construct: human JAK1 (a.a. 837-1142) and JAK2 (a.a. 828-1132); His tag (N); made in house; host or cells: insect cells (baculovirus)
T1 sequence (O60674 828-1132): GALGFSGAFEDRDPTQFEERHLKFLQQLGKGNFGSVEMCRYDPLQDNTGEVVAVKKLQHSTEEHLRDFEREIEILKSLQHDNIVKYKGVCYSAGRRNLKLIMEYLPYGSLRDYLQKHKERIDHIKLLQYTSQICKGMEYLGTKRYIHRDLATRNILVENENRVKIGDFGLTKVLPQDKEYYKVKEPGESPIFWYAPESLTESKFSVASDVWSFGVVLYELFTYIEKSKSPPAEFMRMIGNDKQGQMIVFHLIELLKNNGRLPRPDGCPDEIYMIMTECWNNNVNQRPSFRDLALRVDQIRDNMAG
Experimental: (§1) Compounds herein were tested for inhibitory activity of JAK targets according to the following in vitro assay described in Park et al., Analytical Biochemistry 1999, 269, 94-104. The catalytic domains of human JAK1 (a.a. 837-1142) and JAK2 (a.a. 828-1132) with an N-terminal His tag were expressed using baculovirus in insect cells and purified. The catalytic activity of JAK1 and JAK2 was assayed by measuring the phosphorylation of a biotinylated peptide. The phosphorylated peptide was detected by homogenous time resolved fluorescence (HTRF). IC50s of compounds were measured for each kinase in the 40 microL reactions that contain the enzyme, ATP and 500 nM peptide in 50 mM Tris (pH 7.8) buffer with 100 mM NaCl, 5 mM DTT, and 0.1 mg/mL (0.01%) BSA. For the 1 mM IC50 measurements, ATP concentration in the reactions was 1 mM. Reactions were carried out at room temperature for 1 hour and then stopped with 20 μL 45 mM EDTA, 300 nM SA-APC, 6 nM Eu-Py20 in assay buffer (Perkin Elmer, Boston, Mass.). Binding to the Europium labeled antibody took place for 40 minutes and HTRF signal was measured on a Fusion plate reader (Perkin Elmer, Boston, Mass.). See Table A for data related to compounds of the Examples (at 1 mM). Data is indicated as ranges: <20 nM (+), 20 to <150 nM (++), 150 to 500 nM (+++).

[2] = biological target: T2, human JAK1 (a.a. 837-1142) catalytic domain (Homo sapiens, UniProt P23458); experiment: In vitro JAK kinase assay (HTRF, phosphorylation of a biotinylated peptide), JAK1; conditions: 1 mM ATP
T2 construct: human JAK1 (a.a. 837-1142) and JAK2 (a.a. 828-1132); His tag (N); made in house; host or cells: insect cells (baculovirus)
T2 sequence (P23458 849-1154): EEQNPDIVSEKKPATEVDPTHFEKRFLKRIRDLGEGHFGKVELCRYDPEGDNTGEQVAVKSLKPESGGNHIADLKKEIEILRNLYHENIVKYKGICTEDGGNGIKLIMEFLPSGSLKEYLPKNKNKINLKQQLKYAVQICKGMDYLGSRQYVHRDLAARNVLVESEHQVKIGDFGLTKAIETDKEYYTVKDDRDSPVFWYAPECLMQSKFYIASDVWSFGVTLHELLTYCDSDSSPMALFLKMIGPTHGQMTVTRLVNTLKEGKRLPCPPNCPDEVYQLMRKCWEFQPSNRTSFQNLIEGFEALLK
Experimental: as §1

[3] = tested on: human JAK1 (a.a. 837-1142) catalytic domain; experiment: as above; conditions: ratio of JAK2 IC50 to JAK1 IC50, 1 mM ATP
Experimental: as §1

N#CC[C@]1(n2cc(-c3ncnc4[nH]ccc34)cn2)C[C@H](N2CCC(Nc3cc(CN4CCC(F)(F)C4)cc(C(F)(F)F)n3)CC2)C1 [Example 36, {trans-3-(4-{[4-[(3,3-difluoropyrrolidin-1-yl)methyl]-6-(trifluoromethyl)pyridin-2-yl]amino}piperidin-1-yl)-1-[4-(7H-pyrrolo[2,3-d]pyrimidin-4-yl)-1H-pyrazol-1-yl]cyclobutyl}acetonitrile]
IC50 [1]: 150 to 500 nM
IC50 [2]: < 20 nM
JAK2/JAK1 [3]: >10

C[C@@H](CO)NCc1cc(OC2CCN([C@H]3C[C@](CC#N)(n4cc(-c5ncnc6[nH]ccc56)cn4)C3)CC2)nc(C(F)(F)F)c1 [Example 1, {trans-3-(4-{[4-({[(1S)-2-hydroxy-1-methylethyl]amino}methyl)-6-(trifluoromethyl)pyridin-2-yl]oxy}piperidin-1-yl)-1-[4-(7H-pyrrolo[2,3-d]pyrimidin-4-yl)-1H-pyrazol-1-yl]cyclobutyl}acetonitrile]
IC50 [1]: 20 to 150 nM
IC50 [2]: < 20 nM
JAK2/JAK1 [3]: >10

CC1(C)CN(Cc2cc(NC3CCN([C@H]4C[C@](CC#N)(n5cc(-c6ncnc7[nH]ccc67)cn5)C4)CC3)nc(C(F)(F)F)c2)C1 [Example 35, {trans-3-(4-{[4-[(3,3-dimethylazetidin-1-yl)methyl]-6-(trifluoromethyl)pyridin-2-yl]amino}piperidin-1-yl)-1-[4-(7H-pyrrolo[2,3-d]pyrimidin-4-yl)-1H-pyrazol-1-yl]cyclobutyl}acetonitrile]
IC50 [1]: 20 to 150 nM
IC50 [2]: < 20 nM
JAK2/JAK1 [3]: >10

N#CC[C@]1(n2cc(-c3ncnc4[nH]ccc34)cn2)C[C@H](N2CCC(Oc3cc(CNC4COC4)cc(C(F)(F)F)n3)CC2)C1 [Example 11, {trans-3-(4-{[4-[(oxetan-3-ylamino)methyl]-6-(trifluoromethyl)pyridin-2-yl]oxy}piperidin-1-yl)-1-[4-(7H-pyrrolo[2,3-d]pyrimidin-4-yl)-1H-pyrazol-1-yl]cyclobutyl}acetonitrile]
IC50 [1]: 20 to 150 nM
IC50 [2]: < 20 nM
JAK2/JAK1 [3]: >10

N#CC[C@]1(n2cc(-c3ncnc4[nH]ccc34)cn2)C[C@H](N2CCC(Nc3cc(CO)nc(C(F)(F)F)n3)CC2)C1 [Example 27, {trans-3-(4-{[6-(hydroxymethyl)-2-(trifluoromethyl)pyrimidin-4-yl]amino}piperidin-1-yl)-1-[4-(7H-pyrrolo[2,3-d]pyrimidin-4-yl)-1H-pyrazol-1-yl]cyclobutyl}acetonitrile]
IC50 [1]: 20 to 150 nM
IC50 [2]: < 20 nM
JAK2/JAK1 [3]: >10

C[C@@H](O)CNCc1cc(OC2CCN([C@H]3C[C@](CC#N)(n4cc(-c5ncnc6[nH]ccc56)cn4)C3)CC2)nc(C(F)(F)F)c1 [Example 14, {trans-3-(4-{[4-({[(2R)-2-hydroxypropyl]amino}methyl)-6-(trifluoromethyl)pyridin-2-yl]oxy}piperidin-1-yl)-1-[4-(7H-pyrrolo[2,3-d]pyrimidin-4-yl)-1H-pyrazol-1-yl]cyclobutyl}acetonitrile]
IC50 [1]: 20 to 150 nM
IC50 [2]: < 20 nM
JAK2/JAK1 [3]: >10

N#CC[C@]1(n2cc(-c3ncnc4[nH]ccc34)cn2)C[C@H](N2CCC(Nc3cc(CN[C@H]4C[C@H](O)C4)nc(C(F)(F)F)n3)CC2)C1 [Example 30, {trans-3-(4-{[6-{[(trans-3-hydroxycyclobutyl)amino]methyl}-2-(trifluoromethyl)pyrimidin-4-yl]amino}piperidin-1-yl)-1-[4-(7H-pyrrolo[2,3-d]pyrimidin-4-yl)-1H-pyrazol-1-yl]cyclobutyl}acetonitrile]
IC50 [1]: 20 to 150 nM
IC50 [2]: < 20 nM
JAK2/JAK1 [3]: >10

CCNCc1cc(N(C)C2CCN([C@H]3C[C@](CC#N)(n4cc(-c5ncnc6[nH]ccc56)cn4)C3)CC2)nc(C(F)(F)F)c1 [Example 48, {trans-3-{4-[[4-[(ethylamino)methyl]-6-(trifluoromethyl)pyridin-2-yl](methyl)amino]piperidin-1-yl}-1-[4-(7H-pyrrolo[2,3-d]pyrimidin-4-yl)-1H-pyrazol-1-yl]cyclobutyl}acetonitrile]
IC50 [1]: 20 to 150 nM
IC50 [2]: < 20 nM
JAK2/JAK1 [3]: >10

N#CC[C@]1(n2cc(-c3ncnc4[nH]ccc34)cn2)C[C@H](N2CCC(Nc3cc(CNCCO)nc(C(F)(F)F)n3)CC2)C1 [Example 29, {trans-3-(4-{[6-{[(2-hydroxyethyl)amino]methyl}-2-(trifluoromethyl)pyrimidin-4-yl]amino}piperidin-1-yl)-1-[4-(7H-pyrrolo[2,3-d]pyrimidin-4-yl)-1H-pyrazol-1-yl]cyclobutyl}acetonitrile]
IC50 [1]: 20 to 150 nM
IC50 [2]: < 20 nM
JAK2/JAK1 [3]: >10

N#CC[C@]1(n2cc(-c3ncnc4[nH]ccc34)cn2)C[C@H](N2CCC(Oc3cc(CN[C@H]4C[C@H](O)C4)cc(C(F)(F)F)n3)CC2)C1 [Example 12, {trans-3-(4-{[4-{[(trans-3-hydroxycyclobutyl)amino]methyl}-6-(trifluoromethyl)pyridin-2-yl]oxy}piperidin-1-yl)-1-[4-(7H-pyrrolo[2,3-d]pyrimidin-4-yl)-1H-pyrazol-1-yl]cyclobutyl}acetonitrile]
IC50 [1]: 20 to 150 nM
IC50 [2]: < 20 nM
JAK2/JAK1 [3]: >10

N#CC[C@]1(n2cc(-c3ncnc4[nH]ccc34)cn2)C[C@H](N2CCC(Nc3cc(CN4CC(O)C4)cc(C(F)(F)F)n3)CC2)C1 [Example 41, {trans-3-(4-{[4-[(3-hydroxyazetidin-1-yl)methyl]-6-(trifluoromethyl)pyridin-2-yl]amino}piperidin-1-yl)-1-[4-(7H-pyrrolo[2,3-d]pyrimidin-4-yl)-1H-pyrazol-1-yl]cyclobutyl}acetonitrile]
IC50 [1]: 20 to 150 nM
IC50 [2]: < 20 nM
JAK2/JAK1 [3]: >10

C[C@H](CO)NCc1cc(OC2CCN([C@H]3C[C@](CC#N)(n4cc(-c5ncnc6[nH]ccc56)cn4)C3)CC2)nc(C(F)(F)F)c1 [Example 2, {trans-3-(4-{[4-({[(1R)-2-hydroxy-1-methylethyl]amino}methyl)-6-(trifluoromethyl)pyridin-2-yl]oxy}piperidin-1-yl)-1-[4-(7H-pyrrolo[2,3-d]pyrimidin-4-yl)-1H-pyrazol-1-yl]cyclobutyl}acetonitrile]
IC50 [1]: 20 to 150 nM
IC50 [2]: < 20 nM
JAK2/JAK1 [3]: >10

CC1(NCc2cc(OC3CCN([C@H]4C[C@](CC#N)(n5cc(-c6ncnc7[nH]ccc67)cn5)C4)CC3)nc(C(F)(F)F)c2)COC1 [Example 9, {trans-3-(4-{[4-{[(3-methyloxetan-3-yl)amino]methyl}-6-(trifluoromethyl)pyridin-2-yl]oxy}piperidin-1-yl)-1-[4-(7H-pyrrolo[2,3-d]pyrimidin-4-yl)-1H-pyrazol-1-yl]cyclobutyl}acetonitrile]
IC50 [1]: 20 to 150 nM
IC50 [2]: < 20 nM
JAK2/JAK1 [3]: >10

N#CC[C@]1(n2cc(-c3ncnc4[nH]ccc34)cn2)C[C@H](N2CCC(Nc3cc(CN[C@H]4C[C@H](O)C4)cc(C(F)(F)F)n3)CC2)C1 [Example 34, {trans-3-(4-{[4-{[(trans-3-hydroxycyclobutyl)amino]methyl}-6-(trifluoromethyl)pyridin-2-yl]amino}piperidin-1-yl)-1-[4-(7H-pyrrolo[2,3-d]pyrimidin-4-yl)-1H-pyrazol-1-yl]cyclobutyl}acetonitrile]
IC50 [1]: 20 to 150 nM
IC50 [2]: < 20 nM
JAK2/JAK1 [3]: >10

{cis-3-(4-{[4-(2-hydroxyethyl)-6-(trifluoromethyl)pyridin-2-yl]amino}piperidin-1-yl)-1-[4-(7H-pyrrolo[2,3-d]pyrimidin-4-yl)-1H-pyrazol-1-yl]cyclobutyl}acetonitrile and {trans-3-(4-{[4-(2-hydroxyethyl)-6-(trifluoromethyl)pyridin-2-yl]amino}piperidin-1-yl)-1-[4-(7H-pyrrolo[2,3-d]pyrimidin-4-yl)-1H-pyrazol-1-yl]cyclobutyl}acetonitrile [Example 38]
IC50 [1]: 20 to 150 nM
IC50 [2]: < 20 nM
JAK2/JAK1 [3]: >10

CC1(C)CN(Cc2cc(OC3CCN([C@H]4C[C@](CC#N)(n5cc(-c6ncnc7[nH]ccc67)cn5)C4)CC3)nc(C(F)(F)F)c2)C1 [Example 13, {trans-3-(4-{[4-[(3,3-dimethylazetidin-1-yl)methyl]-6-(trifluoromethyl)pyridin-2-yl]oxy}piperidin-1-yl)-1-[4-(7H-pyrrolo[2,3-d]pyrimidin-4-yl)-1H-pyrazol-1-yl]cyclobutyl}acetonitrile]
IC50 [1]: 20 to 150 nM
IC50 [2]: < 20 nM
JAK2/JAK1 [3]: >10

N#CC[C@]1(n2cc(-c3ncnc4[nH]ccc34)cn2)C[C@H](N2CCC(Oc3cc(C4(O)COC4)cc(C(F)(F)F)n3)CC2)C1 [Example 49, {trans-3-(4-{[4-(3-hydroxyoxetan-3-yl)-6-(trifluoromethyl)pyridin-2-yl]oxy}piperidin-1-yl)-1-[4-(7H-pyrrolo[2,3-d]pyrimidin-4-yl)-1H-pyrazol-1-yl]cyclobutyl}acetonitrile]
IC50 [1]: 20 to 150 nM
IC50 [2]: < 20 nM
JAK2/JAK1 [3]: >10
